Laboratory results reported in US11013780B2, “Methods of treating female infertility” (Myovant Sciences GmbH, priority 2016, dated 2021).
Where two headings read alike, the source gives them in different places. Where a SMILES comes first, the peptide text is derived from it. [ ]: non-standard residue; d: D form. Arg(Me) = CNC(=N)NCCC[C@H](N)C(=O)O; Hyp = O=C(O)[C@@H]1C[C@@H](O)CN1; azaGly = NNC(=O)O

Legend:
[1] = In vitro distribution into blood cells, dogs; type: in vitro ADME
Method: The in vitro distribution ratios of [^14C]API-MA into the blood cells at the concentrations of 0.01, 0.1, 1, and 10 μg/mL API-FB (free form) were 7.8%, 8.0%, 7.1%, and 4.8% for rats, 2.4%, 2.0%, 1.6%, and 1.2% for dogs, and 2.0%, 0.0%, 0.0%, and 0.5% for humans, respectively. […] The in vitro plasma protein binding ratios of [^14C]API-FB in rats, dogs, monkeys, and humans were determined by the ultracentrifugation method. In addition, the protein binding to human serum albumin (HSA), α1-acid glycoprotein (AGP), and HSA/AGP was investigated. […] In rats and dogs, a slight decrease in the binding ratio at the concentration range between 0.1 and 1.0 μg/mL API-FB was observed. In monkeys and humans, the binding was independent of the drug concentrations from 0.01 to 10 μg/mL API-FB.

[2] = Single dose PK, phase 1, healthy European men; type: in vivo, human; details: for Tmax / half-life / CL/F / AUC(0-inf) / AUC(0-t) / Cmax / Vd/F / CL renal / dose excreted: male, human; for Tmax / half-life / CL/F / AUC(0-inf) / AUC(0-t) / Cmax / Vd/F: plasma; for Vd/F: read-out: Vz/F; for CL renal: urine and plasma, read-out: CLr (renal clearance) (converted); for dose excreted: urine
Method: The study was conducted in France.
Eighty-two healthy European male subjects aged 50 to 76 years were enrolled into nine cohorts. 81/82 subjects (98.8%) were white and 1/82 subject (1.2%) was black/African American. Subjects enrolled in the first six cohorts received 0.001, 0.003, 0.01, 0.03, 0.1, or 0.3 mg of API-MA or placebo by single SC bolus. In the 0.3 mg cohort, 6 subjects received API-MA and two received placebo. In the remaining cohorts, 7 subjects received API-MA and three received placebo. Subjects enrolled in the seventh, eighth, and ninth cohorts received 1, 3, or 6 mg of API-MA or placebo by single 2-hour SC infusion. In these cohorts, 6 subjects received API-MA and two received placebo.
To measure urinary excretion of API-MA, urine specimens were collected at the following nominal times: from 12 hours prior to dosing until dosing and 0 to 6, 6 to 12, 12 to 24, 24 to 48 and 48 to 72 hours postdose.
To measure urinary excretion of API-MA, urine specimens were collected at the following nominal times: from 12 hours prior to dosing until dosing and 0 to 6, 6 to 12, 12 to 24, 24 to 48, and 48 to 72 hours after the start of the infusion.

human KISS1R = human KISS1R (Homo sapiens, UniProt Q969F8); test: Competitive binding assay, human KISS1R; design: expressed in transfected cells
From the text: The binding affinity of API-MA to membrane fractions of KISS1R-expressing recombinant cells was examined in a competitive binding assay.

[3] = single SC 0.001 mg, geometric mean
[4] = single SC 0.003 mg, geometric mean
[5] = single SC 0.01 mg, geometric mean
[6] = single SC 0.03 mg, geometric mean
[7] = single SC 0.1 mg, geometric mean
[8] = single SC 0.3 mg, geometric mean
[9] = subcutaneous, 2-hour INF 1 mg, geometric mean
[10] = subcutaneous, 2-hour INF 3 mg, geometric mean
[11] = subcutaneous, 2-hour INF 6 mg, geometric mean
[12] = single SC 0.001 mg, only 1 subject above LLOQ

Chain of human KISS1R (Q969F8 whole entry): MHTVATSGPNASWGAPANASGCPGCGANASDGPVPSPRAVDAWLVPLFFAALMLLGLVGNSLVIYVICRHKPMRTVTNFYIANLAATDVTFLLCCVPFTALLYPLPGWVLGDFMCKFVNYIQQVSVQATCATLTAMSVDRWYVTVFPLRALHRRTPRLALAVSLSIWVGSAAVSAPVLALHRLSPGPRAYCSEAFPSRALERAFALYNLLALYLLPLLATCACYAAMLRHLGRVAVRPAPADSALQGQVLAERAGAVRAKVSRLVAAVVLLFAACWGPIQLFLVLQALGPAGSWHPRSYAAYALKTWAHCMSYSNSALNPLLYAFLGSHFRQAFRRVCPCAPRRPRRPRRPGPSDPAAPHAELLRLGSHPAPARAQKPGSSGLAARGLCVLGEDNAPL

## CC(=O)O.CNC(=N)NCCC[C@H](NC(=O)[C@H](CC(C)C)NC(=O)NNC(=O)[C@H](Cc1ccccc1)NC(=O)[C@@H](NC(=O)[C@H](CC(N)=O)NC(=O)[C@@H]1C[C@@H](O)CN1C(=O)[C@@H](Cc1ccc(O)cc1)NC(C)=O)[C@@H](C)O)C(=O)N[C@@H](Cc1c[nH]c2ccccc12)C(N)=O [API-MA, 2-(N-Acetyl-D-tyrosyl-trans-4-hydroxy-L-prolyl-Lasparaginyl-L-threonyl-L-phenylalanyl)-hydrazinocarbonyl-L-leucyl-Nω-methyl-L-arginyl-L-tryptophanamide monoacetate] (Ac-[dY][Hyp]NTF[azaGly]L[Arg(Me)]W-NH2)
[1]; 0.01 μg/mL API-FB
  Distribution ratio into blood cells: 2.4%
[1]; 0.1 μg/mL API-FB
  Distribution ratio into blood cells: 2.0%
[1]; 1 μg/mL API-FB
  Distribution ratio into blood cells: 1.6%
[1]; 10 μg/mL API-FB
  Distribution ratio into blood cells: 1.2%
[2]; 2-hour INF 1 mg, geometric mean (% CV)
  Ae(0-t) (urine): 29971.789 (27.97) ng
[2]; 2-hour INF 3 mg, geometric mean (% CV)
  Ae(0-t) (urine): 118170.544 (41.46) ng
[2]; 2-hour INF 6 mg, geometric mean (% CV)
  Ae(0-t) (urine): 322822.342 (10.34) ng
[2]; SC bolus, read-out: Median Tmax, range over cohorts
  Tmax: 0.5 to 0.75 h
[2]; sc, 0.001 mg, single SC 0.001 mg, read-out: T½ (median) (converted)
  half-life: 1.8 h
[2]; sc, 0.003 mg, single SC 0.003 mg, read-out: T½ (median) (converted)
  half-life: 1.43 h
[2]; sc, 0.01 mg, single SC 0.01 mg, read-out: T½ (median) (converted)
  half-life: 2.17 h
[2]; sc, 0.03 mg, single SC 0.03 mg, read-out: T½ (median) (converted)
  half-life: 2.61 h
[2]; sc, 0.1 mg, single SC 0.1 mg, read-out: T½ (median) (converted)
  half-life: 3.08 h
[2]; sc, 0.3 mg, single SC 0.3 mg, read-out: T½ (median) (converted)
  half-life: 3.45 h
[2]; sc, 2-hour INF 1 mg, geometric mean
  CL/F: 380 mL/min
[2]; sc, 2-hour INF 3 mg, geometric mean
  CL/F: 353 mL/min
[2]; sc, 2-hour INF 6 mg, geometric mean
  CL/F: 315 mL/min
[2]; [3]
  AUC(0-inf): 0.0475 ng·h/mL
  AUC(0-t): 0.0267 ng·h/mL
  CL/F: 351 mL/min
  Cmax: 0.0133 ng/mL
  Vd/F: 63.9 L
[2]; single SC 0.001 mg, read-out: Tmax (median)
  Tmax: 0.5 h
[2]; [4]
  AUC(0-inf): 0.122 ng·h/mL
  AUC(0-t): 0.101 ng·h/mL
  CL/F: 409 mL/min
  Cmax: 0.0424 ng/mL
  Vd/F: 55.9 L
  CL renal: 19700 mL/min
  Ae(0-t) (urine): 119.177 ng
[2]; single SC 0.003 mg, read-out: Tmax (median)
  Tmax: 0.75 h
[2]; [5]
  AUC(0-inf): 0.371 ng·h/mL
  AUC(0-t): 0.345 ng·h/mL
  CL/F: 449 mL/min
  Cmax: 0.14 ng/mL
  Vd/F: 85.6 L
  CL renal: 17900 mL/min
  Ae(0-t) (urine): 370.540 ng
[2]; single SC 0.01 mg, read-out: Tmax (median)
  Tmax: 0.5 h
[2]; [6]
  AUC(0-inf): 1.11 ng·h/mL
  AUC(0-t): 1.07 ng·h/mL
  CL/F: 451 mL/min
  Cmax: 0.34 ng/mL
  Vd/F: 96 L
  CL renal: 15600 mL/min
  Ae(0-t) (urine): 1003.082 ng
[2]; single SC 0.03 mg, read-out: Tmax (median)
  Tmax: 0.5 h
[2]; [7]
  AUC(0-inf): 3.94 ng·h/mL
  AUC(0-t): 3.89 ng·h/mL
  CL/F: 423 mL/min
  Cmax: 1.38 ng/mL
  Vd/F: 108 L
  CL renal: 17500 mL/min
  Ae(0-t) (urine): 4077.298 ng
[2]; single SC 0.1 mg, read-out: Tmax (median)
  Tmax: 0.5 h
[2]; [8]
  AUC(0-inf): 13.2 ng·h/mL
  AUC(0-t): 13.2 ng·h/mL
  CL/F: 378 mL/min
  Cmax: 4.35 ng/mL
  Vd/F: 114 L
  CL renal: 14300 mL/min
  Ae(0-t) (urine): 11326.187 ng
[2]; single SC 0.3 mg, read-out: Tmax (median)
  Tmax: 0.625 h
[2]; subcutaneous, 1 mg, 2-hour INF 1 mg, read-out: T1/2 (median) (converted)
  half-life: 3.64 h
[2]; subcutaneous, 3 mg, 2-hour INF 3 mg, read-out: T1/2 (median) (converted)
  half-life: 5.25 h
[2]; subcutaneous, 6 mg, 2-hour INF 6 mg, read-out: T1/2 (median) (converted)
  half-life: 5.26 h
[2]; subcutaneous, 6 mg, 3 and 6 mg, read-out: Mean T1/2 at the highest doses (converted)
  half-life: ~5.2 h
[2]; [9]
  AUC(0-inf): 43.8 ng·h/mL
  AUC(0-t): 43.7 ng·h/mL
  Cmax: 13.1 ng/mL
  Vd/F: 120 L
[2]; subcutaneous, 2-hour INF 1 mg, read-out: Tmax (median)
  Tmax: 2.25 h
[2]; [10]
  AUC(0-inf): 141 ng·h/mL
  AUC(0-t): 141 ng·h/mL
  Cmax: 39.4 ng/mL
  Vd/F: 150 L
[2]; subcutaneous, 2-hour INF 3 mg, read-out: Tmax (median)
  Tmax: 2.25 h
[2]; [11]
  AUC(0-inf): 318 ng·h/mL
  AUC(0-t): 318 ng·h/mL
  Cmax: 82.5 ng/mL
  Vd/F: 141 L
[2]; subcutaneous, 2-hour INF 6 mg, read-out: Tmax (median)
  Tmax: 2.25 h
[2]; [12]
  CL renal: 17500 mL/min
  Ae(0-t) (urine): 34.658 ng
  Fe (urine): 3.466%
[2]; subcutaneous, 2-hour INF 1 mg, geometric mean (% CV)
  CL renal: 11400 mL/min
[2]; subcutaneous, 2-hour INF 3 mg, geometric mean (% CV)
  CL renal: 13900 mL/min
[2]; subcutaneous, 2-hour INF 6 mg, geometric mean (% CV)
  CL renal: 16900 mL/min
[2]; sc, 0.003 to 6 mg, bolus and infusion, read-out: Fe, range over cohorts
  dose excreted: 3.09 to 5.4%
[2]; sc, 2-hour INF 1 mg, geometric mean (% CV), read-out: Fe (urine)
  dose excreted: 3%
[2]; sc, 2-hour INF 3 mg, geometric mean (% CV), read-out: Fe (urine)
  dose excreted: 3.94%
[2]; sc, 2-hour INF 6 mg, geometric mean (% CV), read-out: Fe (urine)
  dose excreted: 5.38%
[2]; single SC 0.001 mg, only 1 subject above LLOQ, read-out: Fe (urine)
  dose excreted: 3.47%
[2]; single SC 0.003 mg, geometric mean, read-out: Fe (urine)
  dose excreted: 3.97%
[2]; single SC 0.01 mg, geometric mean, read-out: Fe (urine)
  dose excreted: 3.71%
[2]; single SC 0.03 mg, geometric mean, read-out: Fe (urine)
  dose excreted: 3.34%
[2]; single SC 0.1 mg, geometric mean, read-out: Fe (urine)
  dose excreted: 4.08%
[2]; single SC 0.3 mg, geometric mean, read-out: Fe (urine)
  dose excreted: 3.77%
Human KISS1R
  IC50: 0.23 nM
